In brackets after ≈: the same amount, converted by molar mass. Entries after “also recorded” stand apart in the source; their conditions may differ. Like-named read-outs stand apart in the source and are kept apart here.
Assays:
gut microbiome [1] = test: Phase 1 healthy volunteer study, gut microbiome (metagenomics, qPCR); assay type: in vivo, human; details: for Proportion of isolated Firmicutes, Erysipelotrichaceae: baseline 2%; for Proportion of isolated Firmicutes, Other: baseline 4%; for Proportion of isolated Firmicutes, Lachnospiraceae: baseline 26%; for Proportion of isolated Firmicutes, Ruminococcaceae: baseline 68%
Melissococcus plutonius = test: MIC determination, stool Firmicute isolates; assay type: cell-based; details: N=1
[2] = system: Erysipelatoclostridium ramosum; test: MIC determination, stool Firmicute isolates; assay type: cell-based; details: Thomasclavelia ramosa
[3] = system: C. difficile CD 630 and R20291 cell morphology; test: Morphology assessment by bright field microscopy; assay type: cell-based; details: sub-inhibitory to MIC, 24 hours, listed as IBZ
Procedure: Cultures were then incubated in an anaerobic chamber at 37° C. in for 24 hrs. Pre-cultures were diluted to approximately 10^6CFU/mL (1:100) in fresh BHI comprising 0.25×MIC (0.5 ug/mL) of the appropriate antibiotic. Following incubation for 24 hrs, EVOS imaging system (Thermofisher) was used to take bright field pictures at 40× magnification.

Dorea longicatena = test: MIC determination, stool Firmicute isolates; assay type: cell-based; details: N=1
[4] = system: flagellar genes fliA, flgB, fliC in C. difficile strain CD 630; test: Flagellar gene expression by qRT-PCR
gut microbiome [5] = test: Germ-free humanized mouse study, 16S rRNA gut microbiome analysis; assay type: in vivo; details: humanized germ-free mice; for proportional change of Bacteroidetes (in words): phylum level
From the text: Germ-free (GF) mice (six per group) were randomly assigned to IBZ, VAN, FDX, MTZ, or control groups.
An oral gavage of healthy human-derived fecal slurry was given to GF mice. The humanized mice were housed in a sterile biological safety cabinet (BSC) for one week to allow the donor gut microbiome to establish. Humanized mice were then moved to sterile, micro-isolator cages and pellet chow diet was exchanged for a powder chow diet. The humanized mice were then allowed one week to acclimate to the powder chow diet. In addition, a stool sample was obtained prior to the change in diet (baseline 1). At day 14, once the mice acclimated to the powder chow diet, a second baseline stool sample was obtained (baseline 2) and antibiotic treatment was started. The appropriate antibiotics were added to the powder chow diet for 10 days. At day 16, two days after beginning antibiotic treatment, another stool sample was collected (ABX-1). During the 10-day antibiotic treatment, powder chow dishes were refilled each day with fresh chow containing the randomly assigned antibiotic. Stool samples were again collected at day 24 (ABX-2).
To assess antibiotic microbiome effect, 16S rRNA metagenomics was used on stool samples that were collected at day 0 (baseline 1 and baseline 2) and after 2 and […] of treatment with antibiotics. Bulk DNA was extracted from stool samples using the DNeasy® PowerSoil® Kit. The V4 region of the bacterial 16S rRNA gene was sequenced using the Illumina MiSeq and CLC Genomics Workbench. Raw sequencing reads were processed and curated using the mothur (v.1.48.0) software package and the mothur MiSeq SOP was followed as outlined in Schloss, P. D., et al., Introducing mothur: open-source, platform-independent, community supported software for describing and comparing microbial communities. Appl Environ Microbiol, 2009. 75(23): p. 7537-41 (see also, Kozich, J. J., et al., Development of a dual-index sequencing strategy and curation pipeline for analyzing amplicon sequence data on the MiSeq Illumina sequencing platform. Appl Environ Microbiol, 2013. 79(17): p. 5112-20.). All data visualization and statistical analysis were performed using R studio (R Core Team (2023). R: A Language and Environment for Statistical Computing, Vienna, Austria.).

Clostridium tertium = test: MIC determination, stool Firmicute isolates; assay type: cell-based
Enterococcus pseudoavium = test: MIC determination, stool Firmicute isolates; assay type: cell-based; details: N=1
[6] = system: Lachnoclostridium pacaense; test: MIC determination, stool Firmicute isolates; assay type: cell-based; details: Clostridium pacaense, N=1
Clostridium butyricum = test: microbe, parasite or virus in culture; assay type: cell-based
Clostridium subterminale = test: MIC determination, stool Firmicute isolates; assay type: cell-based; details: N=1
[7] = system: C. difficile CD 630 motility; test: Phenotypic motility assay; details: sub-inhibitory concentrations in semi-solid BHI agar
[8] = healthy volunteers, 450 mg twice daily 10 days, day 3
[9] = healthy volunteers, 450 mg twice daily 10 days, day 5
[10] = healthy volunteers, 450 mg twice daily 10 days, day 8
[11] = healthy volunteers, 450 mg twice daily 10 days, day 10
[12] = healthy volunteers, 450 mg twice daily 10 days, day 12
[13] = antibiotic in powder chow 10 days
[14] = antibiotic in powder chow 10 days, compared to Baseline 2 (D14)

SMILES: O=c1[nH]c(NCc2ccc(Cl)c(Cl)c2)nc2ncn(CCN3CCOCC3)c12 [Ibezapolstat, 2-((3,4-dichlorobenzyl)amino)-7-(2-morpholinoethyl)-1,7-dihydro-6H-purin-6-one]
- amount of C. coccoides (Clostridium cluster XIVa), qPCR (gut microbiome [1]; healthy volunteers, 450 mg twice a day, over 12 days): increased
- Proportion of isolated Firmicutes, Streptococcaceae (gut microbiome [1]; [8]): 27%
- Proportion of isolated Firmicutes, Veillonellaceae (gut microbiome [1]; [8]): 3%
- Proportion of isolated Firmicutes, Erysipelotrichaceae (gut microbiome [1]; [8]): 4%
- Proportion of isolated Firmicutes, Other (gut microbiome [1]; [8]): 6%
- Proportion of isolated Firmicutes, Lachnospiraceae (gut microbiome [1]; [8]): 23%
- Proportion of isolated Firmicutes, Ruminococcaceae (gut microbiome [1]; [8]): 37%
- Proportion of isolated Firmicutes, Streptococcaceae (gut microbiome [1]; [9]): 43%
- Proportion of isolated Firmicutes, Erysipelotrichaceae (gut microbiome [1]; [9]): 7%
- Proportion of isolated Firmicutes, Other (gut microbiome [1]; [9]): 9%
- Proportion of isolated Firmicutes, Lachnospiraceae (gut microbiome [1]; [9]): 21%
- Proportion of isolated Firmicutes, Ruminococcaceae (gut microbiome [1]; [9]): 20%
- Proportion of isolated Firmicutes, Lactobacilloae (gut microbiome [1]; [10]): 12%
- Proportion of isolated Firmicutes, Streptococcaceae (gut microbiome [1]; [10]): 49%
- Proportion of isolated Firmicutes, Erysipelotrichaceae (gut microbiome [1]; [10]): 7%
- Proportion of isolated Firmicutes, Other (gut microbiome [1]; [10]): 9%
- Proportion of isolated Firmicutes, Lachnospiraceae (gut microbiome [1]; [10]): 16%
- Proportion of isolated Firmicutes, Ruminococcaceae (gut microbiome [1]; [10]): 7%
- Proportion of isolated Firmicutes, Lactobacilloae (gut microbiome [1]; [11]): 5%
- Proportion of isolated Firmicutes, Streptococcaceae (gut microbiome [1]; [11]): 41%
- Proportion of isolated Firmicutes, Erysipelotrichaceae (gut microbiome [1]; [11]): 18%
- Proportion of isolated Firmicutes, Other (gut microbiome [1]; [11]): 9%
- Proportion of isolated Firmicutes, Lachnospiraceae (gut microbiome [1]; [11]): 24%
- Proportion of isolated Firmicutes, Ruminococcaceae (gut microbiome [1]; [11]): 3%
- Proportion of isolated Firmicutes, Lactobacilloae (gut microbiome [1]; [12]): 6%
- Proportion of isolated Firmicutes, Streptococcaceae (gut microbiome [1]; [12]): 14%
- Proportion of isolated Firmicutes, Erysipelotrichaceae (gut microbiome [1]; [12]): 25%
- Proportion of isolated Firmicutes, Other (gut microbiome [1]; [12]): 5%
- Proportion of isolated Firmicutes, Lachnospiraceae (gut microbiome [1]; [12]): 47%
- Proportion of isolated Firmicutes, Ruminococcaceae (gut microbiome [1]; [12]): 4%
- Actinobacteria abundance after starting treatment (gut microbiome [1]; healthy volunteers, primarily Bifidobacteriales or Coriobacteriales, persisted for the entire dosing period): increased in abundance
- microbiome profile of treated subjects (gut microbiome [1]; phase 1 healthy volunteer study, treatment over 10 days, shotgun metagenomic sequencing): larger proportion of Actinobacteria and Firmicute Phylum
- MIC50 (Melissococcus plutonius): 6.25 µg/mL (≈ 14.8 µM)
- MIC50 ([2]; N=5): 6.25 µg/mL (≈ 14.8 µM)
- MIC ([2]; N=5, read-out: MIC Max): 100 µg/mL (≈ 236 µM)
- MIC ([2]; N=5, read-out: MIC Min): 3.12 µg/mL (≈ 7.38 µM)
- cell morphology [3]: elongated cell phenotype; also recorded: dose-dependent effect on C. difficile cell length
- MIC50 (Dorea longicatena): 3.12 µg/mL (≈ 7.38 µM)
- reduction in motility and flagellar genes ([4]; 4-hour treatment with 0.25×MIC): up to 50%
- flgB expression decreased versus non-treated control ([4]; CD 630, 0.5×MIC, 4 hours): about 30%
- fliA expression attenuated versus non-treated control ([4]; CD 630, 0.5×MIC, 4 hours): about 60%
- fliC expression decreased versus non-treated control ([4]; CD 630, 0.5×MIC, 4 hours): about 80%
- decrease overall in flagellar gene expression ([4]; CD 630, sub-MIC (0.5×MIC), 4 hours, gluD control): 2-to-5 fold
- proportional change of Bacteroidetes (in words) (gut microbiome [5]): proportional increases
- proportional change of Bacteroidetes (in words) (gut microbiome [5]; listed as IBZ): significant proportional increase
- Average Change in Metric ± SD, Bray-Curtis Dissim. to Baseline 1 (gut microbiome [5]; [13]): 0.81 ± 0.02
- Average Change in Metric ± SD, Bray-Curtis Dissim. to Baseline 2 (gut microbiome [5]; [13]): 0.68 ± 0.03
- Avg. Change in Relative Abundance ± SD, Actinobacteria (gut microbiome [5]; [14]): 0.02% ± 0.08%
- Avg. Change in Relative Abundance ± SD, Bacteroidetes (gut microbiome [5]; [14]): 34% ± 2.96%
- Avg. Change in Relative Abundance ± SD, Proteobacteria (gut microbiome [5]; [14]): 9.7% ± 3.12%
- MIC50 (Clostridium tertium): 12.5 µg/mL (≈ 29.5 µM)
- MIC (Clostridium tertium; N=2, read-out: MIC Min): 3.12 µg/mL (≈ 7.38 µM)
- MIC (Clostridium tertium; read-out: MIC Max): 12.5 µg/mL (≈ 29.5 µM)
- MIC50 (Enterococcus pseudoavium): 100 µg/mL (≈ 236 µM)
- MIC50 [6]: 25 µg/mL (≈ 59.1 µM)
- MIC50 (Clostridium butyricum): 12.5 µg/mL (≈ 29.5 µM)
- MIC (Clostridium butyricum; read-out: MIC Max, Clostridium butyricum, N=5): 100 µg/mL (≈ 236 µM)
- MIC (Clostridium butyricum; read-out: MIC Min, Clostridium butyricum, N=5): 1.5 µg/mL (≈ 3.54 µM)
- MIC (Clostridium butyricum; strain C. butyricum 1007): > 100 µg/mL
- MIC (Clostridium butyricum; strain C. butyricum 1008): 1.5 µg/mL (≈ 3.54 µM)
- MIC50 (Clostridium subterminale): 1 µg/mL (≈ 2.36 µM)
- motility of CD 630 [7]: attenuated motility
- motility of CD 630 ([7]; listed as IBZ): less motile
